# According to patent US20220389515A1, “USE OF BIOMARKERS TO PREDICT CLINICAL SENSITIVITY TO 2-(4-CHLOROPHENYL)-N-((2-(2,6-DIOXOPIPERIDIN-3-YL)-1-OXOISOINDOLIN-5-YL)METHYL)-2,2-DIFLUOROACETAMIDE” (priority 2019, published 2022):
# Entries after “also recorded” stand apart in the source; their conditions may differ.
# Tested on: U937 and OCI-AML2 cells
# Assay: Flow cytometry-based CRISPR competition assay (RFP+/GFP+ ratio)
# Type: cell-based, human
# Procedure: To investigate the role of the mTOR signaling pathway in mediating Compound D sensitivity, a CRISPR competition assay was performed (see FIG. 6A). U937 cells stably expressing Cas9 were infected with a lentiviral vector expressing GFP and non-targeting sgRNA (sgNT), or lentiviral vectors expressing RFP and non-targeting sgRNA (sgNT), or lentiviral vectors expressing RFP and sgRNAs targeting MTOR, RICTOR or RAPTOR. Cells were then treated with DMSO or 100 nM Compound D. The RFP+/GFP+ ratio was monitored by flow cytometry every 2-3 days thereafter.
# Next, CRISPR competition assays were conducted in U937 and OCI-AML2 cells as described above. Specifically, U937 cells stably expressing Cas9 were infected with lentiviral vector constitutively expressing GFP and non-targeting sgRNA (sgNT), or with lentiviral vectors constitutively expressing RFP and non-targeting sgRNA (sgNT) or sgRNAs targeting TSC1 or TSC2. Three days after infection, RFP and GFP cells were mixed at a 1:1 ratio and treated with DMSO, 1 μM Compound D, or 10 μM Compound D. The change of RFP+/GFP+ ratio was monitored by flow cytometry every 2-3 days thereafter. Similarly, OCI-AML2 cells stably expressing Cas9 were infected with lentiviral vector constitutively expressing GFP and non-targeting sgRNA (sgNT), or with lentiviral vectors constitutively expressing RFP and non-targeting sgRNA (sgNT) or sgRNAs targeting TSC1 or TSC2. Three days after infection, RFP and GFP cells were mixed at a 1:1 ratio and treated with DMSO, 0.1 μM Compound D, or […] Compound D. The change of RFP+/GFP+ ratio was monitored by flow cytometry every 2-3 days thereafter.
# A CRISPR competition assay was performed as shown in the upper panel of FIG. 5A, and similarly to the assay described above. U937 cells stably expressing Cas9 were infected with a lentiviral vector constitutively expressing GFP and non-targeting sgRNA (sgNT), or with lentiviral vectors constitutively expressing RFP and non-targeting sgRNA (sgNT) or sgRNAs targeting GCN2. On day 2, RFP and GFP cells were mixed at a 1:1 ratio and treated with DMSO or 100 nM Compound D. The change of RFP+/GFP+ ratio was monitored by flow cytometry every 2-3 days thereafter.
# Next, CRISPR competition assays were conducted in U937 and OCI-AML2 cells as described above. Specifically, U937 and OCI-AML2 cell lines were transduced with plenti-EF1á-Cas9-P2A-Blast, followed by Blasticidin selection to establish Cas9-expressing cell lines. U937-Cas9 and OCI-AML2-Cas9 cells were then transduced with pRSG17-U6-sgNT-1-UbiC-TagGFP2-2A-Puro, or pRSG16-U6-UbiC-TagRFP-2A-Puro vectors expressing sgNT-1, sgNC-1, sgNC-8 or gene-specific sgRNAs. Transduced cells were washed with 1×PBS 72 hours post-transduction. Cells were assessed for transduction via RFP or GFP fluorescence reporter expression. Once fluorescence reporter expression was confirmed, RFP- and GFP-transduced cells were mixed at a 1:1 ratio and seeded in 2 ml culture media per well in 12-well tissue culture plates at a cell density of 200,000 cells per mL, and treated with DMSO or an appropriate dose of Compound. Remaining cells underwent puromycin selection for 3-7 days and were harvested for immunoblot analysis to confirm gene knock-out. After seeding cells for culture in 12-well plates, 100 iL cell culture per well was removed for flow cytometric analysis as the baseline “Day 0” RFP- and GFP-positive percentages in each well. […]
smiles,measurement,setting,value
"O=C1CCC(N2Cc3cc(CNC(=O)C(F)(F)c4ccc(Cl)cc4)ccc3C2=O)C(=O)N1 (centres unmarked) [Compound D, 2-(4-chlorophenyl)-N-((2-(2,6-dioxopiperidin-3-yl)-1-oxoisoindolin-5-yl)methyl)-2,2-difluoroacetamide]",response after TSC1 or TSC2 knockout,"U937 1 μM or 10 μM, OCI-AML2 0.1 μM or 1 μM","conferred a growth advantage in the presence of, but not in the absence of, Compound D; also recorded: increased resistance to Compound D"
same,"growth inhibition after loss of GCN1, GCN2, ATF4 or DDIT4",U937 (10 μM) and OCI-AML2,protected the cells against Compound D-induced growth inhibition
same,response of cells lacking GCN2,"U937, 100 nM",resistant to Compound D
same,"sensitivity after knockout of mTOR, Raptor and Rictor","U937, 100 nM",enhances U937 sensitivity to Compound D
same,response after ILF2 or ILF3 knockout,U937 and OCI-AML2,led to Compound D resistance
